Reference: patent US6914045B2, “Glycopeptide antibiotics” (Wyeth Holdings Corporation, priority 2001, dated 2005)
In brackets after ≈: the same amount, converted by molar mass.

Columns and labels:
Assay in all cases: in vitro antibacterial evaluation, MIC by broth dilution
Type in all cases: cell-based
Escherichia coli = settings: 18 hours at 35° C.
How it was run: (§1)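 Inoculum 5×10^5 CFU/mL; concentrations 64 to 0.06 μg/mL; MIC defined as lowest inhibitory level. Conducted by broth dilution under NCCLS guidelines.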

Streptococcus sp. = settings: broth dilution, 18 hours at 35° C.
How it was run: as §1

Staphylococcus sp. = settings: broth dilution, 18 hours at 35° C.
How it was run: as §1

Enterococcus sp. = settings: broth dilution, 18 hours at 35° C.
How it was run: as §1

## N=C1NCC(C(O)C2NC(=O)C(Cc3ccc(OC4OC(CO)C(OC5OC(CO)C(O)C6OC7(OC56)C5CC6CC(C5)CC7C6)C(O)C4O)cc3)NC(=O)C(CC3CCCCC3)NC(=O)CNC(=O)C(CO)NC(=O)C(C(O)C3CNC(=N)N3C3OC(CO)C(O)C(O)C3O)NC2=O)N1 (centres unmarked) [Example 106a, Cyclo[3-cyclohexylalanyl-O-[4-O-[2,3-O-(2-adamantylidene)hexopyranosyl]hexopyranosyl]-tyrosyl-3-(2-iminoimidazolidin-4-yl)seryl-3-(3-hexopyranosyl-2-iminoimidazolidin-4-yl)-serylserylglycyl]]
Escherichia coli; strain ATCC 25922
  MIC Escherichia coli (ATCC 25922): 32 µg/mL (≈ 22.5 µM)
Escherichia coli; strain GC 4559
  MIC Escherichia coli (GC 4559): 32 µg/mL (≈ 22.5 µM)
Escherichia coli; strain GC 4560
  MIC Escherichia coli (GC 4560): 2 µg/mL (≈ 1.41 µM)
Streptococcus sp.; Streptococcus agalactiae (GC 4564)
  MIC Streptococcus agalactiae (GC 4564): 0.25 µg/mL (≈ 0.176 µM)
Streptococcus sp.; Streptococcus pneumoniae (ATCC 6301)
  MIC Streptococcus pneumoniae (ATCC 6301): 0.12 µg/mL (≈ 0.0845 µM)
Streptococcus sp.; Streptococcus pneumoniae (GC 1894)
  MIC Streptococcus pneumoniae (GC 1894): <0.06 µg/mL
Streptococcus sp.; Streptococcus pneumoniae (GC 4565)
  MIC Streptococcus pneumoniae (GC 4565): <0.06 µg/mL
Streptococcus sp.; Streptococcus pyogenes (GC 4563)
  MIC Streptococcus pyogenes (GC 4563): 0.25 µg/mL (≈ 0.176 µM)
Streptococcus sp.; strain ATCC 6301
  MIC Streptococcus pneumoniae (ATCC 6301): 0.12 µg/mL (≈ 0.0845 µM)
Streptococcus sp.; strain GC 1894
  MIC Streptococcus pneumoniae (GC 1894): <0.06 µg/mL
Streptococcus sp.; strain GC 4563
  MIC Streptococcus pyogenes (GC 4563): 0.25 µg/mL (≈ 0.176 µM)
Streptococcus sp.; strain GC 4564
  MIC Streptococcus agalactiae (GC 4564): 0.25 µg/mL (≈ 0.176 µM)
Streptococcus sp.; strain GC 4565
  MIC Streptococcus pneumoniae (GC 4565): <0.06 µg/mL
Staphylococcus sp.
  MIC Coagulase Negative Staphylococcus (GC 4547): 2 µg/mL (≈ 1.41 µM)
  MIC Coagulase Negative Staphylococcus (GC 4548): 1 µg/mL (≈ 0.704 µM)
  MIC Coagulase Negative Staphylococcus (GC 4549): 1 µg/mL (≈ 0.704 µM)
  MIC Coagulase Negative Staphylococcus (GC 4551): 2 µg/mL (≈ 1.41 µM)
  MIC Staphylococcus aureus (ATCC 29213): 2 µg/mL (≈ 1.41 µM)
  MIC Staphylococcus aureus (GC 1131): 2 µg/mL (≈ 1.41 µM)
  MIC Staphylococcus aureus (GC 3051): 2 µg/mL (≈ 1.41 µM)
  MIC Staphylococcus aureus (GC 3053): 2 µg/mL (≈ 1.41 µM)
  MIC Staphylococcus aureus (GC 4541): 2 µg/mL (≈ 1.41 µM)
  MIC Staphylococcus aureus (GC 4542): 2 µg/mL (≈ 1.41 µM)
  MIC Staphylococcus aureus (GC 4544): 4 µg/mL (≈ 2.82 µM)
  MIC Staphylococcus aureus (GC 4545): 2 µg/mL (≈ 1.41 µM)
  MIC Staphylococcus aureus-SMITH (GC 4543): 2 µg/mL (≈ 1.41 µM)
  MIC Staphylococcus haemolyticus (GC 4546): 2 µg/mL (≈ 1.41 µM)
Staphylococcus sp.; strain GC 4546
  MIC Staphylococcus haemolyticus (GC 4546): 2 µg/mL (≈ 1.41 µM)
Staphylococcus sp.; strain GC 4547
  MIC Coagulase Negative Staphylococcus (GC 4547): 2 µg/mL (≈ 1.41 µM)
Staphylococcus sp.; strain GC 4548
  MIC Coagulase Negative Staphylococcus (GC 4548): 1 µg/mL (≈ 0.704 µM)
Staphylococcus sp.; strain GC 4549
  MIC Coagulase Negative Staphylococcus (GC 4549): 1 µg/mL (≈ 0.704 µM)
Staphylococcus sp.; strain GC 4551
  MIC Coagulase Negative Staphylococcus (GC 4551): 2 µg/mL (≈ 1.41 µM)
Staphylococcus sp.; strain SMITH GC 4543
  MIC Staphylococcus aureus-SMITH (GC 4543): 2 µg/mL (≈ 1.41 µM)
Staphylococcus sp.; strain ATCC 29213
  MIC Staphylococcus aureus (ATCC 29213): 2 µg/mL (≈ 1.41 µM)
Staphylococcus sp.; strain GC 1131
  MIC Staphylococcus aureus (GC 1131): 2 µg/mL (≈ 1.41 µM)
Staphylococcus sp.; strain GC 3051
  MIC Staphylococcus aureus (GC 3051): 2 µg/mL (≈ 1.41 µM)
Staphylococcus sp.; strain GC 3053
  MIC Staphylococcus aureus (GC 3053): 2 µg/mL (≈ 1.41 µM)
Staphylococcus sp.; strain GC 4541
  MIC Staphylococcus aureus (GC 4541): 2 µg/mL (≈ 1.41 µM)
Staphylococcus sp.; strain GC 4542
  MIC Staphylococcus aureus (GC 4542): 2 µg/mL (≈ 1.41 µM)
Staphylococcus sp.; strain GC 4544
  MIC Staphylococcus aureus (GC 4544): 4 µg/mL (≈ 2.82 µM)
Staphylococcus sp.; strain GC 4545
  MIC Staphylococcus aureus (GC 4545): 2 µg/mL (≈ 1.41 µM)
Enterococcus sp.; Enterococcus avium (GC 4558)
  MIC Enterococcus avium (GC 4558): 4 µg/mL (≈ 2.82 µM)
Enterococcus sp.; Enterococcus faecalis (ATCC 29212)
  MIC Enterococcus faecalis (ATCC 29212): 8 µg/mL (≈ 5.64 µM)
Enterococcus sp.; Enterococcus faecalis (GC 2242)
  MIC Enterococcus faecalis (GC 2242): 4 µg/mL (≈ 2.82 µM)
Enterococcus sp.; Enterococcus faecalis (GC 2691)
  MIC Enterococcus faecalis (GC 2691): 4 µg/mL (≈ 2.82 µM)
Enterococcus sp.; Enterococcus faecalis (GC 3059)
  MIC Enterococcus faecalis (GC 3059): 8 µg/mL (≈ 5.64 µM)
Enterococcus sp.; Enterococcus faecalis (GC 4552)
  MIC Enterococcus faecalis (GC 4552): 4 µg/mL (≈ 2.82 µM)
Enterococcus sp.; Enterococcus faecalis (GC 4553)
  MIC Enterococcus faecalis (GC 4553): 4 µg/mL (≈ 2.82 µM)
Enterococcus sp.; Enterococcus faecalis (GC 4554)
  MIC Enterococcus faecalis (GC 4554): 8 µg/mL (≈ 5.64 µM)
Enterococcus sp.; Enterococcus faecalis (GC 6189)
  MIC Enterococcus faecalis (GC 6189): 4 µg/mL (≈ 2.82 µM)
Enterococcus sp.; Enterococcus faecium (GC 2243)
  MIC Enterococcus faecium (GC 2243): 4 µg/mL (≈ 2.82 µM)
Enterococcus sp.; Enterococcus faecium (GC 4556)
  MIC Enterococcus faecium (GC 4556): 8 µg/mL (≈ 5.64 µM)
Enterococcus sp.; Enterococcus faecium (GC 4557)
  MIC Enterococcus faecium (GC 4557): 2 µg/mL (≈ 1.41 µM)
Enterococcus sp.; strain ATCC 29212
  MIC Enterococcus faecalis (ATCC 29212): 8 µg/mL (≈ 5.64 µM)
Enterococcus sp.; strain GC 2242
  MIC Enterococcus faecalis (GC 2242): 4 µg/mL (≈ 2.82 µM)
Enterococcus sp.; strain GC 2243
  MIC Enterococcus faecium (GC 2243): 4 µg/mL (≈ 2.82 µM)
Enterococcus sp.; strain GC 2691
  MIC Enterococcus faecalis (GC 2691): 4 µg/mL (≈ 2.82 µM)
Enterococcus sp.; strain GC 3059
  MIC Enterococcus faecalis (GC 3059): 8 µg/mL (≈ 5.64 µM)
Enterococcus sp.; strain GC 4552
  MIC Enterococcus faecalis (GC 4552): 4 µg/mL (≈ 2.82 µM)
Enterococcus sp.; strain GC 4553
  MIC Enterococcus faecalis (GC 4553): 4 µg/mL (≈ 2.82 µM)
Enterococcus sp.; strain GC 4554
  MIC Enterococcus faecalis (GC 4554): 8 µg/mL (≈ 5.64 µM)
Enterococcus sp.; strain GC 4556
  MIC Enterococcus faecium (GC 4556): 8 µg/mL (≈ 5.64 µM)
Enterococcus sp.; strain GC 4557
  MIC Enterococcus faecium (GC 4557): 2 µg/mL (≈ 1.41 µM)
Enterococcus sp.; strain GC 4558
  MIC Enterococcus avium (GC 4558): 4 µg/mL (≈ 2.82 µM)
Enterococcus sp.; strain GC 6189
  MIC Enterococcus faecalis (GC 6189): 4 µg/mL (≈ 2.82 µM)
